# Experimental data from article PMC8222254, “Self-assembly of an anion receptor with metal-dependent kinase inhibition and potent in vitro anti-cancer properties” (Nature Communications, 2021).
# Values joined by “and” are separate entries in the source; they are usually repeats but may differ in a detail not shown here. Equal values may be shown once.
# Legend:
# Experiment in all cases: Kinase inhibition screen, cell-free 33P ATP assay at 10 μM
# Assay type in all cases: biochemical
# [1] = molecular target: 140 purified human kinases (Homo sapiens, UniProt O75716)
# In short: (§1)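 Each complex tested in duplicate at 10 μM; cell-free radiometric assay using ^33P ATP on purified enzymes. Hits mapped by HGNC symbol onto the kinome tree.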
# [2] = molecular target: 140 purified human kinases (Homo sapiens, UniProt P17612); settings: PKA
# In short: as §1
# [3] = molecular target: T1, 140 purified human kinases (Homo sapiens, UniProt P36897)
# T1 sequence (P36897 34-503): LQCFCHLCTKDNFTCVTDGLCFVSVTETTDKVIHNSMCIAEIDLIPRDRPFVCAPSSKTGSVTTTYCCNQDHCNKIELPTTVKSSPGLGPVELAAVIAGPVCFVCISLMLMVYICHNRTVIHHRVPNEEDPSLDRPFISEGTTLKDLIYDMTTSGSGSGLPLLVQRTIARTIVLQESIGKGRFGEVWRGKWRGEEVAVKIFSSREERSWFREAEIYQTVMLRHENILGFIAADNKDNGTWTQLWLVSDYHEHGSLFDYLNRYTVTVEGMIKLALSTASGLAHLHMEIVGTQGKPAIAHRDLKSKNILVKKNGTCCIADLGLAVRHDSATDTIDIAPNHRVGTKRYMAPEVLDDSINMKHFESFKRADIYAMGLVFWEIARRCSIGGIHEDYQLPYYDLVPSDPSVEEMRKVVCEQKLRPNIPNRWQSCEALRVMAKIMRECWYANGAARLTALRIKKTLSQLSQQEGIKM
# In short: as §1
# [4] = molecular target: T2, 140 purified human kinases (Homo sapiens, UniProt Q15831)
# T2 sequence (Q15831 1-433): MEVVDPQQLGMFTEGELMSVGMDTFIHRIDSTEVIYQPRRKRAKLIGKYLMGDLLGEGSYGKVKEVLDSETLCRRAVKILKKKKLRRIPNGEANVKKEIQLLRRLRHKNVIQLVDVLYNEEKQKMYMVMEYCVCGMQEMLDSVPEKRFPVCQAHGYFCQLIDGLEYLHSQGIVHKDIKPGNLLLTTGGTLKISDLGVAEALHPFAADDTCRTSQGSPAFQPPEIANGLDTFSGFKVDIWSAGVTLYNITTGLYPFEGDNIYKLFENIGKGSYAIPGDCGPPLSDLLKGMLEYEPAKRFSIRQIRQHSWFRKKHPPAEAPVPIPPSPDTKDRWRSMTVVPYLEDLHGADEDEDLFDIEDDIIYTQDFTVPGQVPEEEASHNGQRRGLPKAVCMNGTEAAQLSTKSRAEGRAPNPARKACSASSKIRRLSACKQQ
# In short: as §1
# [5] = molecular target: 140 purified human kinases (Homo sapiens, UniProt Q9P286); settings: for % Activity Run 1 / % Activity Run 2: 10 µM
# In short: as §1
# [6] = molecular target: 140 purified human kinases (Homo sapiens, UniProt Q7KZI7)
# In short: as §1
# [7] = molecular target: T3, Src (Homo sapiens, UniProt P12931); settings: for kinase activity of Src: 10 μM complex, cell-free screen; for % Activity Run 1 / % Activity Run 2: 10 µM
# T3 construct: His tag (N); host or cells: baculovirus expression system
# In short: as §1
# [8] = molecular target: 140 purified human kinases (Homo sapiens, UniProt Q96GD4); settings: Aurora B
# In short: as §1
# [9] = molecular target: 140 purified human kinases (Homo sapiens, UniProt Q9BYT3)
# In short: as §1
# [10] = molecular target: 140 purified human kinases (Homo sapiens, UniProt P45984)
# In short: as §1
# Sequence of 140 purified human kinases (Homo sapiens, UniProt O75716) (O75716 whole entry): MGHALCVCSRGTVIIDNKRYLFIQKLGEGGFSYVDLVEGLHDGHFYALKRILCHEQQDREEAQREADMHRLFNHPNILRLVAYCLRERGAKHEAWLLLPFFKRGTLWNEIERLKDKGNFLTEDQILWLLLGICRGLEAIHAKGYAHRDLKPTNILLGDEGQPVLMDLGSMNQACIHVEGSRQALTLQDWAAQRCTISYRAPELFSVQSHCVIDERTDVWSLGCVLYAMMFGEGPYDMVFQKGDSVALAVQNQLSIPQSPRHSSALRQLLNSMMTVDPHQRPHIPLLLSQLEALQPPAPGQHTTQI
# Sequence of 140 purified human kinases (Homo sapiens, UniProt P45984) (P45984 whole entry): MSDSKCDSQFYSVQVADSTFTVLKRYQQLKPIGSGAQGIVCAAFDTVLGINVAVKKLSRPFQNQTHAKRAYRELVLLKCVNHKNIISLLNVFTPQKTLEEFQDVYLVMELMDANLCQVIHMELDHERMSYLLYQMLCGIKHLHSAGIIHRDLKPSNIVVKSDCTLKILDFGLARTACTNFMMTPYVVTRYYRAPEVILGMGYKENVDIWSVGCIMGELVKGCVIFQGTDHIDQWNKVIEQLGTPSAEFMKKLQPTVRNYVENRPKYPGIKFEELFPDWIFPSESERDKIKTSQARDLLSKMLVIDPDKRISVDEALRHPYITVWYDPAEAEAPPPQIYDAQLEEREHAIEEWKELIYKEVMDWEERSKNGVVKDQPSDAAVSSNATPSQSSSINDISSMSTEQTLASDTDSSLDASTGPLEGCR
# Sequence of 140 purified human kinases (Homo sapiens, UniProt Q9P286) (Q9P286 whole entry): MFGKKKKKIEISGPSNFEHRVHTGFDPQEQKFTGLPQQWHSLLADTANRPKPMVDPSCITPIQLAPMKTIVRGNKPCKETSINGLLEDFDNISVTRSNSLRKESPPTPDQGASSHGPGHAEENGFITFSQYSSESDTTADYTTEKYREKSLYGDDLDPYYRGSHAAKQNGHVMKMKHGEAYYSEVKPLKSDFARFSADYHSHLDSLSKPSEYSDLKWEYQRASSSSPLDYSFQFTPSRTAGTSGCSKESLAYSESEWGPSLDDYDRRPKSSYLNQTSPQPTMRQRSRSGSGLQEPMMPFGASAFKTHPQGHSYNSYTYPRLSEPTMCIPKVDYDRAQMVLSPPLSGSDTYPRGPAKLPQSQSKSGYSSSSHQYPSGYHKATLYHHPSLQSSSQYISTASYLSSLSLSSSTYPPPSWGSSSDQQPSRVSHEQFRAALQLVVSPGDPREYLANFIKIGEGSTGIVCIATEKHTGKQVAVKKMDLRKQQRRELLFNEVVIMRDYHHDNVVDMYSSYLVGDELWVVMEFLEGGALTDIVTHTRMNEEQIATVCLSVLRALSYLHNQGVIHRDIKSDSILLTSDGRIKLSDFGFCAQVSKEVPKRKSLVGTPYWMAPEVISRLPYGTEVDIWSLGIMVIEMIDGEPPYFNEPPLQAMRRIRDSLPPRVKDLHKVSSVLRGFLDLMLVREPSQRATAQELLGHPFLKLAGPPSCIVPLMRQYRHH
# Sequence of 140 purified human kinases (Homo sapiens, UniProt Q7KZI7) (Q7KZI7 whole entry): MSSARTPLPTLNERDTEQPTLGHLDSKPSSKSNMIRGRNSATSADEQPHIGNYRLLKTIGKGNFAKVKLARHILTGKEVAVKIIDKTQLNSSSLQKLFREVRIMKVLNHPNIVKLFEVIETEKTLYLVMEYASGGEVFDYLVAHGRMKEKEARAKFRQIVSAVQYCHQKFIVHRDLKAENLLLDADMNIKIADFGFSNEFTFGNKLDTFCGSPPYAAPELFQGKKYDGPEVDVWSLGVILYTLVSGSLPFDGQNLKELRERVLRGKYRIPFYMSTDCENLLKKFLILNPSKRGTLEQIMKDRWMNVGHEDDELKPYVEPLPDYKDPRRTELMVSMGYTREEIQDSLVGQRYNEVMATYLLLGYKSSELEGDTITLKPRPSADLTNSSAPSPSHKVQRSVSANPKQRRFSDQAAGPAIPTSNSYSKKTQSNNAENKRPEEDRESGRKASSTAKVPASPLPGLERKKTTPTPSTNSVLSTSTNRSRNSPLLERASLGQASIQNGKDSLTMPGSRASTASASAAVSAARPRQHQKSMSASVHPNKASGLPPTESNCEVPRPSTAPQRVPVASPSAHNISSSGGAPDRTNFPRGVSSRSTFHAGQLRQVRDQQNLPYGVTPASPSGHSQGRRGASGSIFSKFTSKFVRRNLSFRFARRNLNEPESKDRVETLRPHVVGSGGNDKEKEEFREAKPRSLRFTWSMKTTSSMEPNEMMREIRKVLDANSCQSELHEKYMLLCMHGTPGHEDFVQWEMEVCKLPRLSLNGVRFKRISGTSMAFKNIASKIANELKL
# Sequence of 140 purified human kinases (Homo sapiens, UniProt Q96GD4) (Q96GD4 whole entry): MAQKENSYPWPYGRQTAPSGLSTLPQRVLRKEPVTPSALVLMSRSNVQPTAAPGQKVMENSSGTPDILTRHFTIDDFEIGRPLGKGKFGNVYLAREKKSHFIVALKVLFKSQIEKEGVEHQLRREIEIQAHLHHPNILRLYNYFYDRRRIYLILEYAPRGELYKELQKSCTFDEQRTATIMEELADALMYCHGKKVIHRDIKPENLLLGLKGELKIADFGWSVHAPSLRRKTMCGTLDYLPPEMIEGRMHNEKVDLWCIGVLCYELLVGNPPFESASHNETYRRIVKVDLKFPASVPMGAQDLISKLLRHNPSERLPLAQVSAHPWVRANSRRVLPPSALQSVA
# T3 sequence (P12931 whole entry): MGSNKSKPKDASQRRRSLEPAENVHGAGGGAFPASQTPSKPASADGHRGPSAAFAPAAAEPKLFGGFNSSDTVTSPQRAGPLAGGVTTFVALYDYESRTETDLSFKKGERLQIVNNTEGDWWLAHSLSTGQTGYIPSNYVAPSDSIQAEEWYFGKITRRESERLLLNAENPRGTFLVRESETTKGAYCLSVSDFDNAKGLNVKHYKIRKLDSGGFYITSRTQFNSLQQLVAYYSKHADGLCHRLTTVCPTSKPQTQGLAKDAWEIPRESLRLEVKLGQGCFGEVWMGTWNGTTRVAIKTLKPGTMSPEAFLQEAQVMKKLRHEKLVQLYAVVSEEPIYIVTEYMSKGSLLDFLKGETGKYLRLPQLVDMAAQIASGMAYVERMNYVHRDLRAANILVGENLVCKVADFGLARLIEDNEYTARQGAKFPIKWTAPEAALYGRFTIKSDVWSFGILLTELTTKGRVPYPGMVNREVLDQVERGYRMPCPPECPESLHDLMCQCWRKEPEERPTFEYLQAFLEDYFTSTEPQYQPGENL
# Sequence of 140 purified human kinases (Homo sapiens, UniProt Q9BYT3) (Q9BYT3 whole entry): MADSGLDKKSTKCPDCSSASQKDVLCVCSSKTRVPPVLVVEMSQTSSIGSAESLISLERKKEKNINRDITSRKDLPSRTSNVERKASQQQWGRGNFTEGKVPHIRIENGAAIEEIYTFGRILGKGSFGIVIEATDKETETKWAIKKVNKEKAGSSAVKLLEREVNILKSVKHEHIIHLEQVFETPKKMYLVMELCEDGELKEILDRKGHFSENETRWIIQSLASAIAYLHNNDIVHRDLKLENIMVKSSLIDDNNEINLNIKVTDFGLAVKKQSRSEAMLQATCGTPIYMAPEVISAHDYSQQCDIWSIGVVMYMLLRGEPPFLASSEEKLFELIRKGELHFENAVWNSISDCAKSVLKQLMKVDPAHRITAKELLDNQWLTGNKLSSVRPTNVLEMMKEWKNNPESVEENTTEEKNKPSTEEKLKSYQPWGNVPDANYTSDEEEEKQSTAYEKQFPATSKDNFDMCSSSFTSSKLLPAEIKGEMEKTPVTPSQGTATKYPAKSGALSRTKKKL
smiles,measurement,setting,value
[Cu+2].[Cu+2].[Cu+2].c1ccc(-c2csc(NCCN(CCNc3nc(-c4ccccn4)cs3)CCNc3nc(-c4ccccn4)cs3)n2)nc1.c1ccc(-c2csc(NCCN(CCNc3nc(-c4ccccn4)cs3)CCNc3nc(-c4ccccn4)cs3)n2)nc1 [[L2Cu3]6+],% Inhibition Run 1,[1]; MPSK1,71.3%
same,% Inhibition Run 2,[1]; MPSK1,60%
same,"% Inhibition, Mean",[1]; MPSK1,66%
same,mean % activity,[1]; MPSK1,34%
same,% activity,"[1]; MPSK1, Run 1",28.7%
same,% activity,"[1]; MPSK1, Run 2",40%
same,% Inhibition Run 1,[2],46.4%
same,% Inhibition Run 2,[2],48.2%
same,"% Inhibition, Mean",[2],47%
same,mean % activity,[2],53%
same,% activity,[2]; Run 1,53.6%
same,% activity,[2]; Run 2,51.8%
same,"% Activation, Mean value",[3]; TGFBR1,30%
same,% Inhibition Run 1,[3]; TGFBR1,-44.2%
same,% Inhibition Run 2,[3]; TGFBR1,-16.7%
same,"% Inhibition, Mean",[3]; TGFBR1,-30%
same,mean % activity,[3]; TGFBR1,130%
same,% activity,"[3]; TGFBR1, Run 1",144.2%
same,% activity,"[3]; TGFBR1, Run 2",116.7%
same,% Activity Run 1,"[3]; TGFBR1, 10 µM",144.20%
same,% Activity Run 2,"[3]; TGFBR1, 10 µM",116.70%
same,% Inhibition Run 1,[4]; LKB1,22.9%
same,% Inhibition Run 2,[4]; LKB1,29.1%
same,"% Inhibition, Mean",[4]; LKB1,26%
same,mean % activity,[4]; LKB1,74%
same,% activity,"[4]; LKB1, Run 1",77.1%
same,% activity,"[4]; LKB1, Run 2",70.9%
same,"% Activation, Mean value",[5]; PAK5,10%
same,% Inhibition Run 1,[5]; PAK5,-1.8%
same,% Inhibition Run 2,[5]; PAK5,-17.5%
same,"% Inhibition, Mean",[5]; PAK5,-10%
same,mean % activity,[5]; PAK5,110%
same,% activity,"[5]; PAK5, Run 1",101.8%
same,% activity,"[5]; PAK5, Run 2",117.5%
same,% Activity Run 1,[5]; PAK5,101.80%
same,% Activity Run 2,[5]; PAK5,117.50%
same,% Inhibition Run 1,[6]; MARK2,29.8%
same,% Inhibition Run 2,[6]; MARK2,21.6%
same,"% Inhibition, Mean",[6]; MARK2,26%
same,mean % activity,[6]; MARK2,74%
same,% activity,"[6]; MARK2, Run 1",70.2%
same,% activity,"[6]; MARK2, Run 2",78.4%
same,kinase activity of Src,[7],increased
same,"% Activation, Mean value",[7]; Src,115%
same,% Inhibition Run 1,[7]; Src,-109.2%
same,% Inhibition Run 2,[7]; Src,-121.7%
same,"% Inhibition, Mean",[7]; Src,-115%
same,mean % activity,[7]; Src,215%
same,% activity,"[7]; Src, Run 1",209.2%
same,% activity,"[7]; Src, Run 2",221.7%
same,% Activity Run 1,[7]; Src,209.20%
same,% Activity Run 2,[7]; Src,221.70%
same,% Inhibition Run 1,[8],92.4%
same,% Inhibition Run 2,[8],91.3%
same,"% Inhibition, Mean",[8],92%
same,mean % activity,[8],8%
same,% activity,[8]; Run 1,7.6%
same,% activity,[8]; Run 2,8.7%
same,% Activity inhibition Mean,[8]; 10 µM,91.9%
same,% Activity inhibition Run 1,[8]; 10 µM,92.4%
same,% Activity inhibition Run 2,[8]; 10 µM,91.3%
same,% Activity remaining Run 1,[8]; 10 µM,7.60%
same,% Activity remaining Run 2,[8]; 10 µM,8.70%
same,"% Activation, Mean value",[9]; STK33,7%
same,% Inhibition Run 1,[9]; STK33,-1.8%
same,% Inhibition Run 2,[9]; STK33,-12.3%
same,"% Inhibition, Mean",[9]; STK33,-7%
same,mean % activity,[9]; STK33,107%
same,% activity,"[9]; STK33, Run 1",101.8%
same,% activity,"[9]; STK33, Run 2",112.3%
same,% Inhibition Run 1,[10]; JNK2,22.9%
same,% Inhibition Run 2,[10]; JNK2,15.4%
same,"% Inhibition, Mean",[10]; JNK2,19%
same,mean % activity,[10]; JNK2,81%
same,% activity,"[10]; JNK2, Run 1",77.1%
same,% activity,"[10]; JNK2, Run 2",84.6%
CC(=O)[O-].CC(=O)[O-].CC(=O)[O-].CC(=O)[O-].CC(=O)[O-].CC(=O)[O-].[Zn+2].[Zn+2].[Zn+2].c1ccc(-c2csc(NCCN(CCNc3nc(-c4ccccn4)cs3)CCNc3nc(-c4ccccn4)cs3)n2)nc1.c1ccc(-c2csc(NCCN(CCNc3nc(-c4ccccn4)cs3)CCNc3nc(-c4ccccn4)cs3)n2)nc1 [[L2Zn3]6+],"% Inhibition, Mean",[1]; MPSK1,22%
same,mean % activity,[1]; MPSK1,79%
same,% activity,"[1]; MPSK1, duplicate runs",71% and 86%
same,"% Activation, Mean value",[2],7%
same,"% Inhibition, Mean",[2],-7%
same,mean % activity,[2],107%
same,% activity,[2]; duplicate runs,101% and 114%
same,"% Inhibition, Mean",[3]; TGFBR1,41%
same,"% Inhibition, Run 1 / Run 2",[3]; TGFBR1,35% and 48%
same,mean % activity,[3]; TGFBR1,59%
same,% activity,"[3]; TGFBR1, duplicate runs",65% and 53%
same,"% Activation, Mean value",[4]; LKB1,9%
same,"% Inhibition, Mean",[4]; LKB1,-9%
same,mean % activity,[4]; LKB1,109%
same,% activity,"[4]; LKB1, duplicate runs",101% and 116%
same,"% Activation, Mean value",[5]; PAK5,20%
same,"% Inhibition, Mean",[5]; PAK5,-20%
same,mean % activity,[5]; PAK5,120%
same,% Activity Run 1,[5]; PAK5,110.0%
same,% Activity Run 2,[5]; PAK5,130.0%
same,% activity,"[5]; PAK5, duplicate runs",110% and 130%
same,"% Inhibition, Mean",[6]; MARK2,34%
same,"% Inhibition, Run 1 / Run 2",[6]; MARK2,45% and 24%
same,mean % activity,[6]; MARK2,66%
same,% activity,"[6]; MARK2, duplicate runs",56% and 76%
same,kinase activity of Src,[7],increased
same,"% Activation, Mean value",[7]; Src,75%
same,"% Inhibition, Mean",[7]; Src,-75%
same,mean % activity,[7]; Src,175%
same,% Activity Run 1,[7]; Src,169.0%
same,% Activity Run 2,[7]; Src,180.0%
same,% activity,"[7]; Src, duplicate runs",169% and 180%
same,"% Inhibition, Mean",[8],50%
same,"% Inhibition, Run 1 / Run 2",[8],54% and 46%
same,mean % activity,[8],50%
same,% activity,[8]; duplicate runs,46% and 54%
same,"% Inhibition, Mean",[9]; STK33,6.55%
same,"% Inhibition, Run 1 / Run 2",[9]; STK33,3.3% and 10%
same,mean % activity,[9]; STK33,93%
same,% activity,"[9]; STK33, duplicate runs",97% and 90%
same,"% Inhibition, Mean",[10]; JNK2,31%
same,"% Inhibition, Run 1 / Run 2",[10]; JNK2,33% and 28%
same,mean % activity,[10]; JNK2,70%
same,% activity,"[10]; JNK2, duplicate runs",67% and 72%
